Data taken from article PMC12921513 (ACS Bio & Med Chem Au, 2025).
Where “and” joins values, the source holds several entries; their conditions need not be identical. Equal entries are not always repeated.

Tested on: SaFabI
Test: SaFabI fluorescence intensity counter-screen
Details: 30 μM inhibitor, 200 nM enzyme
Experimental: A similar fluorescence intensity assay was utilized to counter-screen against S. aureus (SaFabI) to determine the degree of selectivity for FabK over FabI.
The SaFabI assay was conducted as follows. Reactions were carried out at 25 °C in the assay buffer (50 mM MES pH 5.5, 100 mM NaCl). […] The oxidation of NADPH to NADP^+ was measured by tracking fluorescence (340 nm/460 nm) with a Biotek Synergy H1 microplate reader in 15 s intervals for a total of 10 min to monitor the rate of reaction. Reaction was conducted in Greiner Bio-One 384-Well μClear Bottom Polystyrene Microplates. The percent inhibition of each compound was calculated on the basis of the resulting velocity.

| SMILES | SaFabI % inhibition, 30 μM |
| --- | --- |
| CS(=O)(=O)c1ccc2nc(NC(=O)NCc3nc(-c4ccc(Br)cc4)c[nH]3)sc2c1 [compound 2] | 21.0% |
| O=C(NCc1nc(-c2ccc(Br)cc2)c[nH]1)Nc1nc2cc(Cl)ccc2s1 [compound 3] | 9.8% |
| O=C(NCc1nc(-c2ccc(Br)cc2)c[nH]1)Nc1nc2cccc(C(F)(F)F)c2s1 [compound 4] | 18% |
| Oc1cc(Cl)ccc1Oc1ccc(Cl)cc1Cl [triclosan, reference compound] | 99% and 99.9% |
